Source: patent US20250366474A1, “USE OF 4,5-DIMETHYLTHIAZOLE IN PROMOTING PLANT GROWTH” (HUAZHONG AGRICULTURAL UNIVERSITY, priority 2024, published 2025)

Assays:
rice seedlings = test: 4,5-dimethylthiazole root drenching: rice seedling dry matter mass and chlorophyll content; type: in vivo; details: for Root System Biomass / Shoot Part Biomass / Total Biomass / Total Chlorophyll Content: 30 days of seedling cultivation; for Total Chlorophyll Content: leaves; for Root System Relative Value / Shoot Part Relative Value / Total Chlorophyll Content Relative Value / Total Relative Value: 30 days, vs Control 0 mg/L
Description: Five root irrigation solution concentrations (0, 20, 50, 100 and 200 mg/L) and three types of root drenching frequency (2, 4, and 6 times) were set. 4,5-dimethylthiazole of different mass was dissolved in distilled water to obtain root irrigation solutions at different concentrations. After normal rice seed soaking and accelerated germination, rice substrate soil was loaded 2 cm away from a seedling tray opening, gently compacted, and watered with pure water to be wet. A rice seedling nursery substrate was “rice seedling nursery substrate” purchased from Guangzhou Shengsheng Agriculture Co., Ltd., with main ingredients including peat, vermiculite and yellow mud. Two seeds were sowed in each hole on a substrate surface, covered with the substrate soil again to the seedling tray opening, and watered to be wet. Three days after the rice seedling emergence, the root irrigation solutions at different concentrations was applied once every five days, until there was a water layer of 5 mm on a surface of the substrate. Each treatment was applied with a consistent amount. The drenching was conducted during cooler evening hours to minimize evaporation. After 30 days of seedling cultivation, nine rice samples were taken from each treatment, divided into shoot parts and root system, which were dried and then weighed; and leaves were taken from another nine rice plants to measure chlorophyll content.

[1] = tested on: hydroponic rice seedlings; test: Addition of 4,5-dimethylthiazole to hydroponic rice: growth, agronomic traits and nitrogen accumulation; type: in vivo, indica (Heliangyou 332) and japonica (Nipponbare); details: for Dry Matter Mass of Rice, Root System / Dry Matter Mass of Rice, Shoot Part / Dry Matter Mass of Rice, Total / Leaf Area / Leaf Length / Leaf Width / Plant Height / Total Root Count: 25 days of cultivation
Description: Five addition concentrations of 4,5-dimethylthiazole (CAS No. 3581-91-7, see FIG. 1 for structural formula) were set, being 0, 5, 10, 20 and 50 mg/L, respectively, and a solvent was a rice nutrient solution. Two rice varieties were indica (Heliangyou 332) and japonica (Nipponbare), respectively. The rice was subjected to normal seed soaking, sowing and cultivation. When grown to one leaf and one tiller, rice seedlings were cultivated with mixed solution. Samples were collected after 25 days of cultivation. 30 plants were sampled from each treatment, where 15 plants were divided into two parts of stems and leaves, and root system, which were dried and weighed, and the other 15 plants were measured for agronomic traits.

[2] = root drenching 2 Times, 20 mg/L
[3] = root drenching 2 Times, 50 mg/L
[4] = root drenching 2 Times, 100 mg/L
[5] = root drenching 2 Times, 200 mg/L
[6] = root drenching 4 Times, 20 mg/L
[7] = root drenching 4 Times, 50 mg/L
[8] = root drenching 4 Times, 100 mg/L
[9] = root drenching 4 Times, 200 mg/L
[10] = root drenching 6 Times, 20 mg/L
[11] = root drenching 6 Times, 50 mg/L
[12] = root drenching 6 Times, 100 mg/L
[13] = root drenching 6 Times, 200 mg/L

Cc1ncsc1C [4,5-dimethylthiazole]
Root System Biomass (rice seedlings; [2]): 7.5 mg/plant | Shoot Part Biomass (rice seedlings; [2]): 82.9 mg/plant | Total Biomass (rice seedlings; [2]): 90.4 mg/plant | Total Chlorophyll Content (rice seedlings; [2]): 4.77 mg/g | Root System Relative Value (rice seedlings; [2]): 36.8% | Shoot Part Relative Value (rice seedlings; [2]): 35.9% | Total Chlorophyll Content Relative Value (rice seedlings; [2]): 27.8% | Total Relative Value (rice seedlings; [2]): 36.0% | Root System Biomass (rice seedlings; [3]): 8.0 mg/plant | Shoot Part Biomass (rice seedlings; [3]): 79.8 mg/plant | Total Biomass (rice seedlings; [3]): 87.9 mg/plant | Total Chlorophyll Content (rice seedlings; [3]): 4.29 mg/g | Root System Relative Value (rice seedlings; [3]): 46.7% | Shoot Part Relative Value (rice seedlings; [3]): 30.8% | Total Chlorophyll Content Relative Value (rice seedlings; [3]): 15.0% | Total Relative Value (rice seedlings; [3]): 32.1% | Root System Biomass (rice seedlings; [4]): 8.3 mg/plant | Shoot Part Biomass (rice seedlings; [4]): 76.3 mg/plant | Total Biomass (rice seedlings; [4]): 84.6 mg/plant | Total Chlorophyll Content (rice seedlings; [4]): 3.82 mg/g | Root System Relative Value (rice seedlings; [4]): 52.2% | Shoot Part Relative Value (rice seedlings; [4]): 25.0% | Total Chlorophyll Content Relative Value (rice seedlings; [4]): 2.5% | Total Relative Value (rice seedlings; [4]): 27.2% | Root System Biomass (rice seedlings; [5]): 6.3 mg/plant | Shoot Part Biomass (rice seedlings; [5]): 62.9 mg/plant | Total Biomass (rice seedlings; [5]): 69.2 mg/plant | Total Chlorophyll Content (rice seedlings; [5]): 4.51 mg/g | Root System Relative Value (rice seedlings; [5]): 15.6% | Shoot Part Relative Value (rice seedlings; [5]): 3.1% | Total Chlorophyll Content Relative Value (rice seedlings; [5]): 20.8% | Total Relative Value (rice seedlings; [5]): 4.1% | Root System Biomass (rice seedlings; [6]): 7.0 mg/plant | Shoot Part Biomass (rice seedlings; [6]): 74.5 mg/plant | Total Biomass (rice seedlings; [6]): 81.5 mg/plant | Total Chlorophyll Content (rice seedlings; [6]): 4.15 mg/g | Root System Relative Value (rice seedlings; [6]): 27.7% | Shoot Part Relative Value (rice seedlings; [6]): 22.1% | Total Chlorophyll Content Relative Value (rice seedlings; [6]): 11.2% | Total Relative Value (rice seedlings; [6]): 22.6% | Root System Biomass (rice seedlings; [7]): 8.0 mg/plant | Shoot Part Biomass (rice seedlings; [7]): 79.9 mg/plant | Total Biomass (rice seedlings; [7]): 87.9 mg/plant | Total Chlorophyll Content (rice seedlings; [7]): 4.09 mg/g | Root System Relative Value (rice seedlings; [7]): 46.3% | Shoot Part Relative Value (rice seedlings; [7]): 30.9% | Total Chlorophyll Content Relative Value (rice seedlings; [7]): 9.8% | Total Relative Value (rice seedlings; [7]): 32.2% | Root System Biomass (rice seedlings; [8]): 7.7 mg/plant | Shoot Part Biomass (rice seedlings; [8]): 79.6 mg/plant | Total Biomass (rice seedlings; [8]): 87.3 mg/plant | Total Chlorophyll Content (rice seedlings; [8]): 3.82 mg/g | Root System Relative Value (rice seedlings; [8]): 41.6% | Shoot Part Relative Value (rice seedlings; [8]): 30.4% | Total Chlorophyll Content Relative Value (rice seedlings; [8]): 2.3% | Total Relative Value (rice seedlings; [8]): 31.3% | Root System Biomass (rice seedlings; [9]): 5.4 mg/plant | Shoot Part Biomass (rice seedlings; [9]): 70.1 mg/plant | Total Biomass (rice seedlings; [9]): 75.5 mg/plant | Total Chlorophyll Content (rice seedlings; [9]): 3.89 mg/g | Root System Relative Value (rice seedlings; [9]): −0.7% | Shoot Part Relative Value (rice seedlings; [9]): 14.8% | Total Chlorophyll Content Relative Value (rice seedlings; [9]): 4.2% | Total Relative Value (rice seedlings; [9]): 13.6% | Root System Biomass (rice seedlings; [10]): 8.6 mg/plant | Shoot Part Biomass (rice seedlings; [10]): 82.7 mg/plant | Total Biomass (rice seedlings; [10]): 91.3 mg/plant | Total Chlorophyll Content (rice seedlings; [10]): 4.03 mg/g | Root System Relative Value (rice seedlings; [10]): 51.8% | Shoot Part Relative Value (rice seedlings; [10]): 35.4% | Total Chlorophyll Content Relative Value (rice seedlings; [10]): 8.1% | Total Relative Value (rice seedlings; [10]): 37.3% | Root System Biomass (rice seedlings; [11]): 7.9 mg/plant | Shoot Part Biomass (rice seedlings; [11]): 85.8 mg/plant | Total Biomass (rice seedlings; [11]): 93.7 mg/plant | Total Chlorophyll Content (rice seedlings; [11]): 4.32 mg/g | Root System Relative Value (rice seedlings; [11]): 44.7% | Shoot Part Relative Value (rice seedlings; [11]): 40.6% | Total Chlorophyll Content Relative Value (rice seedlings; [11]): 15.9% | Total Relative Value (rice seedlings; [11]): 41.0% | Root System Biomass (rice seedlings; [12]): 7.1 mg/plant | Shoot Part Biomass (rice seedlings; [12]): 74.7 mg/plant | Total Biomass (rice seedlings; [12]): 81.8 mg/plant | Total Chlorophyll Content (rice seedlings; [12]): 4.20 mg/g | Root System Relative Value (rice seedlings; [12]): 30.2% | Shoot Part Relative Value (rice seedlings; [12]): 22.4% | Total Chlorophyll Content Relative Value (rice seedlings; [12]): 12.7% | Total Relative Value (rice seedlings; [12]): 23.1% | Root System Biomass (rice seedlings; [13]): 7.1 mg/plant | Shoot Part Biomass (rice seedlings; [13]): 63.5 mg/plant | Total Biomass (rice seedlings; [13]): 70.6 mg/plant | Total Chlorophyll Content (rice seedlings; [13]): 3.79 mg/g | Root System Relative Value (rice seedlings; [13]): 29.7% | Shoot Part Relative Value (rice seedlings; [13]): 4.1% | Total Chlorophyll Content Relative Value (rice seedlings; [13]): 1.6% | Total Relative Value (rice seedlings; [13]): 6.2% | Dry Matter Mass of Rice, Root System ([1]; 5 mg/L): 3.1 mg/plant | Dry Matter Mass of Rice, Shoot Part ([1]; 5 mg/L): 17.0 mg/plant | Dry Matter Mass of Rice, Total ([1]; 5 mg/L): 20.1 mg/plant | Leaf Area ([1]; 5 mg/L): 3.39 cm^2 | Leaf Length ([1]; 5 mg/L): 10.73 cm | Leaf Width ([1]; 5 mg/L): 0.38 cm | Plant Height ([1]; 5 mg/L): 16.73 cm | Total Root Count ([1]; 5 mg/L): 8.0 count/plant | Dry Matter Mass of Rice, Root System ([1]; 10 mg/L): 4.0 mg/plant | Dry Matter Mass of Rice, Shoot Part ([1]; 10 mg/L): 24.3 mg/plant | Dry Matter Mass of Rice, Total ([1]; 10 mg/L): 28.3 mg/plant | Leaf Area ([1]; 10 mg/L): 3.03 cm^2 | Leaf Length ([1]; 10 mg/L): 10.88 cm | Leaf Width ([1]; 10 mg/L): 0.34 cm | Plant Height ([1]; 10 mg/L): 16.97 cm | Total Root Count ([1]; 10 mg/L): 8.0 count/plant | Dry Matter Mass of Rice, Root System ([1]; 20 mg/L): 3.8 mg/plant | Dry Matter Mass of Rice, Shoot Part ([1]; 20 mg/L): 22.0 mg/plant | Dry Matter Mass of Rice, Total ([1]; 20 mg/L): 25.8 mg/plant | Leaf Area ([1]; 20 mg/L): 3.16 cm^2 | Leaf Length ([1]; 20 mg/L): 11.08 cm | Leaf Width ([1]; 20 mg/L): 0.34 cm | Plant Height ([1]; 20 mg/L): 16.13 cm | Total Root Count ([1]; 20 mg/L): 8.7 count/plant | Dry Matter Mass of Rice, Root System ([1]; 50 mg/L): 3.0 mg/plant | Dry Matter Mass of Rice, Shoot Part ([1]; 50 mg/L): 19.7 mg/plant | Dry Matter Mass of Rice, Total ([1]; 50 mg/L): 22.7 mg/plant | Leaf Area ([1]; 50 mg/L): 3.01 cm^2 | Leaf Length ([1]; 50 mg/L): 9.23 cm | Leaf Width ([1]; 50 mg/L): 0.39 cm | Plant Height ([1]; 50 mg/L): 14.15 cm | Total Root Count ([1]; 50 mg/L): 9.3 count/plant | increase of leaf area ([1]; 5-50 mg/L, average): 59.6% | increase of leaf length ([1]; 5-50 mg/L, average): 33.9% | increase of leaf width ([1]; 5-50 mg/L, average): 19.6% | increase of rice plant height ([1]; 5-50 mg/L, average): 31.5% | increase of total root count ([1]; 5-50 mg/L, average): 47.8%
